Laboratory results reported in PubChem BioAssay AID179 (DTP/NCI, 2004).
Values joined by “and” are separate entries in the source; they are usually repeats but may differ in a detail not shown here. Equal values may be shown once. Active and inactive are the calls of the source.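 How the source made its calls: active means compounds giving half or more protection of infected cells from virus-caused growth loss, again on retest; inactive means the rest.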

Test system: CEM cells HIV-1 protection, formazan growth assay
Assay: NCI AIDS Antiviral Assay
Details: for IC50: measured here: growth of uninfected CEM cells
Outline: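 Steps: treat uninfected and HIV-1-infected human CEM cells at five drug levels; quantify growth by soluble formazan; retest any compound reaching 50% protection; classify actives from the retest.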

## CC(=O)NC1C(O)OC(CO)C(OC2OC(CO)C(O)C(O)C2NC(=O)NCCCCCCNC(=O)n2cc(F)c(=O)[nH]c2=O)C1O (stereo unspecified)
  outcome: inactive

## Cc1c2c(n(CCc3ccc(Cl)cc3)c1C)NC(c1ccccc1)C(C#N)S2(=O)=O (stereo unspecified)
  EC50: > 200 µM
  IC50: 8.91 µM

## CC(Cl)CN1COc2c3c(c4ccccc4c2C1)CN(CC(C)Cl)CO3 (stereo unspecified)
  EC50: > 91.2 µM
  IC50: 27.5 µM

## CSc1nc2cc(Cl)ccc2c2c1C=NCCN2
  EC50: > 93.3 µM
  IC50: 15.8 µM

## O=C(/C=C/c1ccc(O)c(O)c1)OCCOC(=O)/C=C/c1ccc(O)c(O)c1
  EC50: > 200 µM
  IC50: 10 µM

## CSc1nc(C)cc(Nc2ccc(O)c(CN3CCOCC3)c2)n1
  EC50: > 24 µM
  IC50: > 24 µM

## COC(=O)/C([O-])=C(\C(=O)OC)[n+]1cc(Br)cc2ccccc21
  EC50: > 200 µM
  IC50: 77.6 µM

## O=c1[nH]n(CCc2ccccn2)c(=O)c2ccccc12
  EC50: > 200 µM
  IC50: > 200 µM

## COc1cc2c(cc1O)-c1[nH]ncc1CCC2
  EC50: > 43.7 µM
  IC50: > 43.7 µM

## CCCCN(CCCC)C(=O)C(=O)C(C(=O)c1ccc(OC)cc1)c1ccc(OC)cc1 (stereo unspecified)
  EC50: > 11.7 µM
  IC50: > 11.7 µM

## N#C/C=C/c1cccc(Cl)c1
  EC50: > 60.3 µM
  IC50: > 60.3 µM

## CC(=O)c1c(C)nc(SSc2nc(C)c(C(C)=O)c(-c3ccc(Cl)cc3)c2C#N)c(C#N)c1-c1ccc(Cl)cc1
  EC50: > 200 µM
  IC50: > 200 µM

## N#CC1(Cl)CC2CC1C1N=NN(c3ccccc3)C21 (stereo unspecified)
  EC50: > 200 µM
  IC50: > 200 µM

## CC(C)N(C(=O)C12C3C4C1C1C2C3C41I)C(C)C (stereo unspecified)
  EC50: > 191 µM
  IC50: > 191 µM

## Nc1nc2ccccc2n1CC(=O)NC12CC3CC(CC(C3)C1)C2
  EC50: > 79.4 µM
  IC50: 36.3 µM

## C(/C=C\c1ccccc1)=NCCCCCCN=C/C=C/c1ccccc1
  EC50: > 20 µM
  IC50: 12.3 µM

## COc1ccc(CN2COc3c(cc(C)c4cccnc34)C2)cc1
  EC50: > 200 µM
  IC50: 1.02 µM

## CC(C)(c1ccccc1)c1ccc(OC#N)cc1
  EC50: > 57.5 µM
  IC50: > 57.5 µM

## CC1=C2C(O)C(C(C)CO)C(O)CC2(C)C(O)CC1 (stereo unspecified)
  outcome: inactive

## COC(=O)C12CCC(C(=O)OC)(Cc3c(c4ccccc4n3S(=O)(=O)c3ccccc3)C1)C2=O (stereo unspecified)
  EC50: > 200 µM
  IC50: 85.1 µM

## CN(C)P(CCP(C)C)N(C)C
  EC50: > 174 µM
  IC50: > 174 µM

## CN(C)C(=NC#N)N(Cc1ccccc1)Cc1ccccc1
  EC50: > 200 µM
  IC50: 112 µM

## C/C=C(/CCO)[Si](C)(C)C
  outcome: inactive

## CC(=O)Nc1cc2ccc(C)nc2c2nc(C)ccc12.CC(=O)Nc1cc2ccc(C)nc2c2nc(C)ccc12.O=C1OC(C(O)C[O-])C(O)=C1O.[Cu+]
  EC50: > 12.6 µM
  IC50: 2.09 µM

## CC(C)(C)OC(=O)N1C(=O)C2CCCC21 (stereo unspecified)
  EC50: > 200 µM
  IC50: > 200 µM

## O=c1/c(=C/c2ccccc2[N+](=O)[O-])sc2nnc(-c3cccnc3)n12
  EC50: > 186 µM
  IC50: > 186 µM

## CN1CCN(c2ccc3nc(-c4ccc5nc(-c6ccc(O)cc6)[nH]c5c4)[nH]c3c2)CC1
  EC50: > 501 µM
  IC50: 3.89 µM

## Brc1ccc2c(c1)C1(c3cc(Br)ccc3-2)c2cc(Br)ccc2-c2ccc(Br)cc21
  EC50: > 40.7 µM
  IC50: > 40.7 µM

## O=C(CN1C(=O)c2cccc3c(Br)ccc(c23)C1=O)c1ccc(F)cc1
  EC50: > 200 µM
  IC50: 52.5 µM

## Clc1ccc(N=Nc2nc3ccccc3nc2N=Nc2ccc(Cl)cc2Cl)c(Cl)c1
  EC50: > 0.794 µM
  IC50: > 0.794 µM

## NS(=O)(=O)c1nn2c(Br)c(-c3ccccc3)nc2s1
  EC50: > 200 µM
  IC50: 1.78 µM

## Cc1ccc(S(=O)(=O)CNC(=O)C(O)(O)C(F)(F)F)cc1
  EC50: > 200 µM
  IC50: > 200 µM

## COC(=O)CC1(O)C(/C=C/c2ccccc2)C(C(=O)OC)C(=O)C(C(=O)OC)C1C(=O)OC (stereo unspecified)
  EC50: > 50.1 µM
  IC50: 37.2 µM

## O=P1(CCc2ccc(Cl)cc2)CC(Br)C(Br)C1 (stereo unspecified)
  EC50: > 631 µM
  IC50: 38 µM

## O=C(O)C1(C(=O)O)CC1(C(=O)O)C(=O)O
  outcome: inactive

## CNC(=O)c1ccc(NC(=O)Nc2cccc(C3=NCCN3)c2)cc1NC(=O)Nc1cccc(C2=NCCN2)c1
  EC50: 28.2 µM
  IC50: 178 µM

## COc1ccc2nc(-c3ccccc3)c(=O)[nH]c2c1
  EC50: > 200 µM
  IC50: 45.7 µM

## COc1ccc(OC)c(NC2=NCCO2)c1
  EC50: > 200 µM
  IC50: 107 µM

## COc1ccc2c(c1)-c1nc(=O)n(CCCN(C)C)c3ccc([N+](=O)[O-])c(c13)N2
  EC50: > 1 µM
  IC50: 0.355 µM

## CCOC(=O)C12CN(C34CC5CC(CC(C5)C3)C4)CC(C(=O)OCC)(C1=O)C(c1ccccc1)OC2c1ccccc1 (stereo unspecified)
  EC50: > 30.9 µM
  IC50: 13.5 µM

## O=C1c2cc(Cl)ccc2NC(=NCCCl)C2CSCN12 (stereo unspecified)
  EC50: > 200 µM
  IC50: > 200 µM

## O=S(=O)(O)SC/C=C\CSS(=O)(=O)O
  outcome: inactive

## COc1cc2c(c(O)c1OC)c(=O)c1ccccc1n2C
  EC50: > 200 µM
  IC50: 66.1 µM

## O=[N+]([O-])c1ccccc1Nc1ccccc1
  outcome: inactive

## COc1ccc(C(=O)Nc2cc(C(=CCC[C@H]3CC[C@@]4(C)[C@@H](CC[C@@H]5[C@@H]4CC[C@]4(C)[C@@H](C(C)CCCC(C)C)CC[C@@H]54)C3)c3cc(NC(=O)c4ccc(OC)c(C(=O)O)c4)c(OC)c(C(=O)O)c3)cc(C(=O)O)c2OC)cc1C(=O)O (stereo partly specified)
  EC50: 36.3 µM
  IC50: 49 µM

## O=C(/C=C/c1ccc(Cl)c(Cl)c1)c1ccc2ccccc2c1
  EC50: > 11.5 µM
  IC50: > 11.5 µM

## O=C(C=P(c1ccccc1)(c1ccccc1)c1ccccc1)C1(C(=O)C=P(c2ccccc2)(c2ccccc2)c2ccccc2)CC1
  EC50: > 200 µM
  IC50: 9.55 µM

## O=c1[nH][nH]c(=O)c2c1[nH]c(=S)n2Cc1ccccc1
  EC50: > 912 µM
  IC50: > 912 µM

## S=C1NCCN1C(=S)Nc1ccccc1
  EC50: > 141 µM
  IC50: > 141 µM

## CN(C)c1ncnc2c1ncn2C1C=CC(COS(N)(=O)=O)C1 (stereo unspecified)
  EC50: > 200 µM
  IC50: > 200 µM

## O=S(=O)(SS(=O)(=O)c1ccccc1)c1ccccc1
  EC50: > 115 µM
  IC50: > 115 µM

## COc1cc(OC)c(C(=O)/C=C/c2ccc(OC)c(OC)c2)c(OC)c1
  outcome: inactive

## N#CN1C2CCC1CC(=O)C2
  EC50: 67.6 µM
  IC50: 129 µM

## CCn1ncc2c(=O)n3ncn(-c4ccc(Br)cc4)c3nc21
  outcome: inactive

## CC1(C)C(C#N)C(=O)N=C(N)C1C(N)=O (stereo unspecified)
  EC50: > 200 µM
  IC50: > 200 µM

## Nc1ccc(N=Nc2ccc(-c3ccc(N=Nc4c(S(=O)(=O)O)cc5cc(S(=O)(=O)O)c(N=Nc6ccccc6)c(O)c5c4N)cc3)cc2)c2ccc(S(=O)(=O)O)cc12
  outcome: inactive

## COc1cc(/C=C(\C#N)C(N)=C(C#N)C#N)cc(O)c1O
  EC50: > 47.9 µM
  IC50: > 47.9 µM

## CC(=O)NC1C(O[C@H]2CC[C@@]3(C)C(CC[C@]4(C)C3CC=C3C5CC(C)(C)CC[C@]5(C(=O)O)CCC34C)C2(C)C)OC(CO)C(O)C1O (stereo partly specified)
  EC50: > 200 µM
  IC50: 9.12 µM

## c1nn2cnnc2s1
  outcome: inactive

## COc1cc2c(cc1OC)C(CSC)Cc1cc(OC)c(OC)cc1N(C)CCC2 (stereo unspecified)
  EC50: > 31.6 µM
  IC50: > 31.6 µM

## COc1c2c(cc3occ(-c4ccc(CC=C(C)C)cc4)c(=O)c13)OC(C)(C)C=C2
  EC50: > 200 µM
  IC50: 14.1 µM

## CN1C(=O)[C@@]2(C=CC3(CC2)OCCO3)c2ccccc21
  EC50: > 200 µM
  IC50: 35.5 µM

## CC(=O)Oc1ccc(C2(c3ccc(OC(C)=O)cc3)C(=O)Nc3ccccc32)cc1
  EC50: > 200 µM
  IC50: 35.5 µM and 36.3 µM

## c1ccc2c(c1)N=C(c1ccc3ccccc3c1)CC(c1cccc3ccccc13)S2 (stereo unspecified)
  EC50: > 2.51 µM
  IC50: > 2.51 µM

## COc1ccc(/C=C2\N=C(SC)NC2=O)cc1
  EC50: > 200 µM
  IC50: 107 µM

## CCN(CC)P1CCP(c2ccccc2)CC1 (stereo unspecified)
  EC50: > 37.2 µM
  IC50: > 37.2 µM

## CC1(C)CC2CC(CC(C)(C)C2=O)C1=O
  EC50: > 871 µM
  IC50: > 871 µM

## O=C(O)c1cccc(S(=O)(=O)NN2C(=O)CSC2c2ccc(Cl)cc2Cl)c1 (stereo unspecified)
  EC50: > 200 µM
  IC50: 35.5 µM

## N=c1oc2ccc3ccccc3c2cc1-c1nc2ccccc2c(=O)[nH]1
  EC50: > 50.1 µM
  IC50: 7.24 µM

## Cc1n[nH]c(=O)n1Nc1ccccc1
  EC50: > 200 µM
  IC50: > 200 µM

## Nc1nc(=O)n(C2CC(O)C(CO)O2)c2nc(-c3ccc(-c4ccccc4)cc3)cnc12 (stereo unspecified)
  EC50: > 200 µM
  IC50: > 200 µM

## CC(C)(C)C1(C#N)C(=O)N(c2ccc(Cl)cc2)C12c1ccccc1-c1ccccc12 (stereo unspecified)
  EC50: > 9.12 µM
  IC50: > 9.12 µM

## Cn1cc(N)cc1C(=O)Nc1ccc(S(=O)(=O)O)c2cc(S(=O)(=O)O)ccc12
  EC50: > 490 µM
  IC50: > 490 µM

## N=C(c1ccccc1)N1CCCCC1
  outcome: inactive

## O=P(O)(OCC(O)O)OCC(O)O
  outcome: inactive

## CCC(C)(C)OC(=O)CC[C@@H](C)[C@H]1CC[C@H]2[C@@H]3CCC4CC(O)CC[C@]4(C)[C@H]3CC[C@]12C (stereo partly specified)
  EC50: > 200 µM
  IC50: 27.5 µM

## CCC12CCCNC1c1c(n(C)c3ccccc13)C(C(=O)OC)C2 (stereo unspecified)
  EC50: > 37.2 µM
  IC50: 34.7 µM

## O=C1OC(=O)C2C1C(c1ccccc1)N1C3C(=O)OC(=O)C3C(c3ccccc3)N21 (stereo unspecified)
  outcome: inactive

## CCOC(=O)CC(CC(=O)OCC)n1cnc2c(N)ncnc21
  outcome: inactive

## O=CSC(=Nc1ccc(Cl)cc1)NC(=O)COc1ccc(Cl)cc1
  EC50: > 148 µM
  IC50: > 100 µM

## CCOC(=O)/C(=C/c1ccc(OC)c(OC)c1)P(=O)(OCC)OCC
  EC50: > 676 µM
  IC50: 85.1 µM

## Nc1nnnn1NC(=O)NCCCl
  EC50: > 200 µM
  IC50: > 200 µM

## O=Nc1ccc(O)cc1O
  EC50: > 200 µM
  IC50: 148 µM

## CCn1c(=O)[nH]c(=O)c2conc21
  EC50: > 1380 µM
  IC50: 661 µM

## N#CC(NC12CC3CC(CC(C3)C1)C2)c1ccccc1C(F)(F)F (stereo unspecified)
  EC50: > 77.6 µM
  IC50: > 77.6 µM

## Nc1ccccc1C(=O)/C=C/c1c(O)ccc2ccccc12
  outcome: inactive

## CCCCCCCCCCCCCCCC/C(C(=O)OC)=C(/O)C(=O)OCC
  EC50: > 8.51 µM
  IC50: > 8.51 µM

## CCCc1cc(=O)oc2c3c(c4c(c12)OC(C)(C)CC4)OC(C)[C@H](C)[C@@H]3O (stereo partly specified)
  EC50: 14.8 µM
  IC50: 15.1 µM
